According to patent US4070470A, “Platelet aggregation inhibiting carbostyrils, their compositions and method of use” (Otsuka Pharmaceutical Co., Ltd., priority 1974, dated 1978):

Tests used:
[1] = test system: thrombosis; details: administered orally or intravenously to mammals including humans; cited from earlier work
[2] = test system: blood platelets; details: at low concentrations; cited from earlier work
[3] = test system: collagen-induced aggregation in rabbit platelet; assay: Inhibition effect on collagen-induced aggregation in rabbit platelet; format: cell-based; details: rabbit platelet (PRP); for inhibition at 100 µM / inhibition at 10 µM / inhibition at 1 µM / inhibition at 0.01 µM: Oryctolagus cuniculus, Platelet; for inhibition at 100 µM: 10^-4 M test compound solution; for inhibition at 0.01 µM: 10^-8 M test compound solution
Procedure: (§1) The aggregation inhibitory activity was determined using an AG-II type aggregometer (made by Bryston Manufacturing Co.). A blood sample was withdrawn from rabbits as a mixture of sodium citrate and whole blood in a proportion of 1 : 9 by volume and centrifuged at 1000 rpm for 10 minutes to obtain a platelet rich plasma (PRP). The resulting PRP was separated, and the remaining blood sample was further centrifuged at 3000 rpm for 15 minutes to obtain a platelet poor plasma (PPP).
(§2) The number of platelets in the PRP was counted in accordance with the Brecher-Clonkite Method, and the PRP was diluted with the PPP to prepare a PRP sample containing platelets in an amount of 300,000/[…] for an adenosine diphosphate (ADP)-induced aggregation test and a PRP sample containing platelets in an amount of 450,000/[…] for a collagen-induced aggregation test.
(§3) 0.01 ml of a solution of a test compound having a predetermined concentration (as shown in the Tables below) was then added to 0.6 ml of the PRP sample obtained above and the mixture was incubated at a temperature of 37° C for 1 minute. Then 0.07 ml of an ADP or collagen solution was added to the mixture. The mixture was then subjected to a transmittance determination and changes in the transmittance of the mixture were recorded using aggregometer at a stirrer rotation rate of 1100 rpm. In this test, Auren Beronal buffer (pH 7.35) was used for the preparation of solutions of ADP, collagen and the test compounds. ADP was adjusted to a concentration of 7.5 × 10^-5 M, and the collagen solution was prepared by triturating 100 mg of collagen with 5 ml of the above buffer and the supernatant obtained was used as a collagen inducer. Adenosine and acetylsalicyclic acid were used as controls for the ADP-induced aggregation test and the collagen-induced aggregation test, respectively. The aggregation inhibitory activity was determined in terms of the percent inhibition (%) with respect to the aggregation ratio of controls. The aggregation ratio can be calculated by the following equation: [formula] Wherein: "a" is the optical density of the PRP,
(§4) "b" is the optical density of the PRP having incorporated therein a test compound and an aggregation inducer, and
(§5) "c" is the optical density of the PPP.

[4] = test system: ADP-induced aggregation in rabbit platelet; assay: Inhibition effect on ADP-induced aggregation in rabbit platelet; format: cell-based; details: rabbit platelet (PRP); for inhibition at 100 µM / inhibition at 10 µM / inhibition at 1 µM / inhibition at 0.01 µM / inhibition at 0.1 µM: Oryctolagus cuniculus, Platelet; for inhibition at 0.01 µM: 10^-8 M test compound solution
Procedure: as §1, §2, §3, §4, §5

[5] = Toxicity of benzcycloamide derivatives in mouse (LD50); details: in vivo
Text: All the benzcycloamide derivatives represented by the aforesaid general formulas (I) are novel compounds having excellent platelet aggregation-inhibiting effects and are useful as preventives for thrombosis. […] Compounds tested: [drawing 17]

## CC(C)(C)NCC(O)COc1cccc2c1CCC(=O)N2 (stereo not drawn) [5-(2'-hydroxy-3-tert-butylamino)-propoxy-3,4-dihydrocarbostyril]
[1]
  preventing and treating thrombosis: very effective for preventing and treating thrombosis
[2]
  inhibition of the aggregation of blood platelets: at low concentrations could specifically inhibit the aggregation of blood platelets

## CCOC(=O)C(C)Oc1ccc2c(c1)CCC(=O)N2 (stereo not drawn) [A]
[3]
  inhibition at 100 µM: 71%
  inhibition at 0.01 µM: 0%
[3]; 10^-5 M test compound solution
  inhibition at 10 µM: 20%
[3]; 10^-6 M test compound solution
  inhibition at 1 µM: 2%
[4]; 10^-4 M test compound solution
  inhibition at 100 µM: 57%
[4]; 10^-5 M test compound solution
  inhibition at 10 µM: 25%
[4]; 10^-6 M test compound solution
  inhibition at 1 µM: 5%

## CCOC(=O)C(C)Oc1ccc2[nH]c(=O)ccc2c1 (stereo not drawn) [B]
[3]
  inhibition at 100 µM: 67%
  inhibition at 0.01 µM: 0%
[3]; 10^-5 M test compound solution
  inhibition at 10 µM: 12%
[3]; 10^-6 M test compound solution
  inhibition at 1 µM: -6%
[4]; 10^-4 M test compound solution
  inhibition at 100 µM: 86%
[4]; 10^-5 M test compound solution
  inhibition at 10 µM: 54%
[4]; 10^-6 M test compound solution
  inhibition at 1 µM: -6%
[4]
  inhibition at 0.01 µM: 14%

## CCOC(=O)C(C)Oc1ccc2c(c1)CCC(=O)N2C (stereo not drawn) [C]
[3]
  inhibition at 100 µM: 36%
  inhibition at 0.01 µM: 9%
[3]; 10^-6 M test compound solution
  inhibition at 1 µM: 0%
[4]; 10^-4 M test compound solution
  inhibition at 100 µM: 36%
[4]; 10^-6 M test compound solution
  inhibition at 1 µM: 0%
[4]
  inhibition at 0.01 µM: 9%

## CCOC(=O)C(C)Oc1cccc2c1NC(=O)CC2 (stereo not drawn) [Compound M]
[3]
  inhibition at 100 µM: 5%
  inhibition at 0.01 µM: 7%
[3]; 10^-6 M test compound solution
  inhibition at 1 µM: 2%
[4]; 10^-4 M test compound solution
  inhibition at 100 µM: 3%
[4]; 10^-6 M test compound solution
  inhibition at 1 µM: 11%
[4]
  inhibition at 0.01 µM: 11%

## CCOC(=O)C(C)Oc1ccc2c(c1)NC(=O)CC2 (stereo not drawn) [D]
[3]
  inhibition at 100 µM: 2%
  inhibition at 0.01 µM: 3%
[3]; 10^-6 M test compound solution
  inhibition at 1 µM: 8%
[4]; 10^-4 M test compound solution
  inhibition at 100 µM: -18%
[4]; 10^-6 M test compound solution
  inhibition at 1 µM: 14%
[4]
  inhibition at 0.01 µM: 14%

## CCOC(=O)CCCOc1ccc2c(c1)CCC(=O)N2 [E]
[3]
  inhibition at 100 µM: 92%
[5]; Female mouse
  LD50: > 1000 mg/kg
[5]; Male mouse
  LD50: > 1000 mg/kg
[4]; 10^-4 M test compound solution
  inhibition at 100 µM: 100%
[4]; 10^-5 M test compound solution
  inhibition at 10 µM: 97%

## CCCCCOC(=O)C(C)Oc1ccc2c(c1)CCC(=O)N2 (stereo not drawn) [F]
[3]
  inhibition at 100 µM: 88%
[3]; 10^-5 M test compound solution
  inhibition at 10 µM: 8%
[3]; 10^-6 M test compound solution
  inhibition at 1 µM: 0%
[4]; 10^-4 M test compound solution
  inhibition at 100 µM: 100%
[4]; 10^-5 M test compound solution
  inhibition at 10 µM: 79%
[4]; 10^-6 M test compound solution
  inhibition at 1 µM: 20%

## CC(C)OC(=O)C(C)Oc1ccc2[nH]c(=O)ccc2c1 (stereo not drawn) [G]
[3]
  inhibition at 100 µM: 55%
[3]; 10^-5 M test compound solution
  inhibition at 10 µM: 25%
[3]; 10^-6 M test compound solution
  inhibition at 1 µM: 3%
[4]; 10^-4 M test compound solution
  inhibition at 100 µM: 74%
[4]; 10^-5 M test compound solution
  inhibition at 10 µM: 38%
[4]; 10^-6 M test compound solution
  inhibition at 1 µM: 7%

## CCOC(=O)CCCOc1cccc2c1CCC(=O)N2 [H]
[3]
  inhibition at 100 µM: 90%
[3]; 10^-5 M test compound solution
  inhibition at 10 µM: 8%
[3]; 10^-6 M test compound solution
  inhibition at 1 µM: 5%
[4]; 10^-4 M test compound solution
  inhibition at 100 µM: 65%
[4]; 10^-5 M test compound solution
  inhibition at 10 µM: 18%
[4]; 10^-6 M test compound solution
  inhibition at 1 µM: 2%

## CCCCCOC(=O)CCCOc1ccc2c(c1)CCC(=O)N2 [I]
[3]
  inhibition at 100 µM: 48%
[3]; 10^-5 M test compound solution
  inhibition at 10 µM: 22%
[3]; 10^-6 M test compound solution
  inhibition at 1 µM: 6%
[4]; 10^-4 M test compound solution
  inhibition at 100 µM: 82%
[4]; 10^-5 M test compound solution
  inhibition at 10 µM: 58%
[4]; 10^-6 M test compound solution
  inhibition at 1 µM: 0%
[4]; 10^-7 M test compound solution
  inhibition at 0.1 µM: 8%

## CCOC(=O)CCCOc1ccc2c(c1)CCC(=O)N2 [J]
[3]; 10^-5 M test compound solution
  Inhibition effect on collagen-induced aggregation: 86%
[3]; 10^-6 M test compound solution
  Inhibition effect on collagen-induced aggregation: 18%
[4]; 10^-4 M test compound solution
  Inhibition effect on ADP-induced aggregation: 100%
[4]; 10^-5 M test compound solution
  Inhibition effect on ADP-induced aggregation: 90%
[4]; 10^-6 M test compound solution
  Inhibition effect on ADP-induced aggregation: 25%
[4]; 10^-7 M test compound solution
  Inhibition effect on ADP-induced aggregation: -4%

## CCOC(=O)CCCCCCOc1ccc2c(c1)CCC(=O)N2 [K]
[3]
  inhibition at 100 µM: 31%
[3]; 10^-5 M test compound solution
  inhibition at 10 µM: 13%
[3]; 10^-6 M test compound solution
  inhibition at 1 µM: 6%
[5]; Female mouse
  LD50: 500 to 1000 mg/kg
[5]; Male mouse
  LD50: 750 to 1000 mg/kg
[4]; 10^-4 M test compound solution
  inhibition at 100 µM: 37%
[4]; 10^-5 M test compound solution
  inhibition at 10 µM: 15%
[4]; 10^-6 M test compound solution
  inhibition at 1 µM: 10%
[4]; 10^-7 M test compound solution
  inhibition at 0.1 µM: 7%

## O=C(O)CCCCCCOc1ccc2c(c1)CCC(=O)N2 [L]
[3]
  inhibition at 100 µM: 15%
[3]; 10^-5 M test compound solution
  inhibition at 10 µM: 14%
[3]; 10^-6 M test compound solution
  inhibition at 1 µM: 2%
[4]; 10^-4 M test compound solution
  inhibition at 100 µM: 13%
[4]; 10^-5 M test compound solution
  inhibition at 10 µM: 8%
[4]; 10^-6 M test compound solution
  inhibition at 1 µM: 7%
[4]; 10^-7 M test compound solution
  inhibition at 0.1 µM: -10%
